From patent US8236527B2, “Recombinant production of authentic human proteins using human cell expression systems” (Humanzyme Limited, priority 2008, dated 2012)
Counter-ions that a name gives are not always drawn. Like-named read-outs stand apart in the source and are kept apart here.

Key:
[1] = target: p38α expressed in E. coli, Vendor B, in vitro activated by MKK6 (Homo sapiens, UniProt Q16539); test: Kinase inhibitor IC50 determination with E. coli p38α (Vendor B, E coli-II); type: biochemical
[2] = target: p38α expressed in E. coli, Vendor A, in vitro activated by MKK6 (Homo sapiens, UniProt Q16539); test: Kinase inhibitor IC50 determination with E. coli p38α (Vendor A, E coli-I); type: biochemical
[3] = target: p38α produced and activated in human cells (Homo sapiens, UniProt Q16539); test: Kinase inhibitor IC50 determination with p38α produced in human cells; type: biochemical; details: read-out: IC50, Human Cell
[4] = Km.ATP of p38α preparations; type: biochemical
[5] = tested on: whole CD4+ cells from a healthy donor; test: Th17 polarizing cytokines: IL-17 secretion from human CD4+ cells (ELISA); type: cell-based; details: for induction of IL-17 secretion: compared with cytokines from insect cell or bacterial expression system, 5 days; for Th17 cell polarization: separate study, same condition
Excerpt: IL-17-producing CD4+ T cells (Th-17 cells) have been identified as a unique subset of Th cells that develop along a pathway that is distinct from the Th1, and Th2-cell differentiation pathways. This finding has provided exciting new insights into immunoregulation, host defense and the pathogenesis of autoimmune diseases. Recently it has been shown that IL1β, IL6 and IL23 are important in driving human Th17 differentiation. However, TGF-β1, which is important for the differentiation of murine Th17 cells, is reported to be not required, and even inhibits human Th17 differentiation (McGeachy & Cua (2008) Immunity 28:445, Chen & O'Shea (2008) Cytokines 41:71). In this study, whole […] cells isolated from a healthy donor were stimulated with 10 μg/mL plate bound anti-CD3 and 10 μg/ml soluble anti-CD28 in the presence of Th17 polarizing cytokines from the inventive human cell expression system and from an insect cell or bacterial expression system. After 5 days supernatants were harvested for measurement of IL-17 by ELISA.

naïve T cell (Th0) = test: Differentiation of naive T cell (Th0) to Th17 cells, flow cytometry; type: cell-based; details: compared with human platelet derived native TGF-β1 (positive control)
Description: (§1) FIG. 22: Efficient differentiation of Th17 cells with authentic cytokines expressed in human cells. Whole CD4+ T cells isolated from a healthy donor were stimulated with 2 μg/mL plate bound anti-CD3 and 1 μg/mL soluble anti-CD28 in the presence of Th17 polarizing cytokines, including a titration of IL-23. After 5 days, supernatants were harvested for measurement of IL-17 by ELISA. See (A)-(G). FIG. 22 (H) depicts flow cytometry analysis on Human Th17 Differentiation by Authentic human TGF-β1. See Example 17 below.

human TF-1 cells = test: IL-4 bioactivity: dose-dependent stimulation of proliferation of TF-1 cells; type: cell-based; details: TF-1 cell proliferation
human CD4+ T cells = test: IL-23 activity: IL-17 secretion from human CD4+ T cells (ELISA); type: cell-based; details: human CD4+ cells, 5 days
Description: (A) IL-23 activities determined by the dose-dependent secretion of IL-17 from mouse splenocytes activated with 10 ng/ml PMA. (B) IL-23 activities determined by the dose-dependent secretion of IL-17 from human CD4+ T cells stimulated with […] plate bound anti-CD3 and […] soluble anti-CD28 in the presence of Th17 polarizing cytokines.
as §1
IL-17-producing CD4+ T cells (Th17 cells) have been identified as a unique subset of T helper cells that develop along a pathway that is distinct from the Th1 and Th2-cell differentiation pathways. This finding has provided exciting new insights into immunoregulation, host defense and the pathogenesis of autoimmune diseases. Recently it has been shown that TGF-β1, […], IL-6 and IL-23 are important in driving human Th17 differentiation (Chen & O'Shea (2008) Cytokines 41:71). […] The activities were further assayed with human CD4+ cells which were isolated from a healthy donor and stimulated with 10 μg/ml plate bound anti-CD3 and 10 μg/ml soluble anti-CD28 in the presence of Th17 polarizing cytokines. After 5 days supernatants were harvested for measurement of IL-17 by ELISA.

[6] = tested on: human embryonic stem (hES) cells; test: Oct3/4 expression in Noggin-treated human embryonic stem cells (Western blot); type: cell-based; details: 10 pg/ml and 20 pg/ml treatment
[7] = tested on: human umbilical vein endothelial cells; test: VEGF165 bioactivity: proliferation of human umbilical vein endothelial cells; type: cell-based; details: HUVEC proliferation
[8] = p38α from E. coli, Vendor B, read-out: IC50, E coli-II
[9] = p38α from E. coli, Vendor A, read-out: IC50, E coli-I

p38α expressed in E. coli, Vendor A, in vitro activated by MKK6, sequence (Q16539 whole entry): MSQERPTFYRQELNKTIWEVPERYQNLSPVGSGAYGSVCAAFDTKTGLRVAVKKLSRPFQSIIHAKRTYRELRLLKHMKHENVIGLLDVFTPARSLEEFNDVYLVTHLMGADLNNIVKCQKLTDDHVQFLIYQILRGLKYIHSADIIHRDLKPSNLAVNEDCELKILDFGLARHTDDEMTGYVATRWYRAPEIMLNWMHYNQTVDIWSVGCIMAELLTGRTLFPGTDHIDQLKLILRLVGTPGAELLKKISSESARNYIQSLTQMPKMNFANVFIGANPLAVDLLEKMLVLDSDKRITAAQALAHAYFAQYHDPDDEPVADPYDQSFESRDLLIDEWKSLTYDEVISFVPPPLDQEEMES
p38α produced and activated in human cells, sequence (Q16539 whole entry): as above
p38α expressed in E. coli, Vendor B, in vitro activated by MKK6, sequence (Q16539 whole entry): as above

## CN(C)C[C@H]1CCn2c(c(C3=C(c4cn(C)c5ccccc45)C(=O)NC3=O)c3ccccc32)C1 [Ro 32-0432]
[1]; [8]
  IC50: > 10 µM
[2]; [9]
  IC50: > 10 µM
[3]; p38α produced in human cells
  IC50: > 10 µM

## authentic p38α: recombinantly-produced, authentic human p38a produced and activated in human cells in the presence of arsenite
[4]
  Km: 109 ± 12 µM

## CC(=O)c1c(O)c(C)c(O)c(Cc2c(O)c3c(c(C(=O)/C=C/c4ccccc4)c2O)OC(C)(C)C=C3)c1O [Rottlerin]
[1]
  IC50: > 200 µM
[2]
  IC50: > 200 µM
[3]
  IC50: >200 µM

## CCCCCCOC(=O)[C@]1(O)C[C@@H]2O[C@@]1(C)n1c3ccccc3c3c4c(c5c6ccccc6n2c5c31)C(=O)NC4 [KT5720]
[1]; [8]
  IC50: > 10 µM
[2]; [9]
  IC50: > 10 µM
[3]; p38α produced in human cells
  IC50: 5 µM

## Vendor B enzyme: p38α from Vendor B, expressed and purified from E. coli, in vitro activated by MKK6
[4]
  Km: 120 µM

## CN(C)CCCn1cc(C2=C(c3c[nH]c4ccccc34)C(=O)NC2=O)c2ccccc21 [GF 109203X]
[1]; [8]
  IC50: > 10 µM
[2]; [9]
  IC50: > 10 µM
[3]
  IC50: > 10 µM

## NCCNS(=O)(=O)c1cccc2cnccc12 [H-9 dihydrochloride]
[1]; [8]
  IC50: > 10 µM
[2]; [9]
  IC50: > 10 µM
[3]; p38α produced in human cells
  IC50: > 10 µM

## IL6: recombinantly-produced, authentic human IL6; SEQ ID NO: 16
[5]
  induction of IL-17 secretion: significantly more effective

## Vendor preparation: p38α from Vendor A, expressed and purified from E. coli, in vitro activated by MKK6
[4]
  Km: 212 ± 26 µM

## authentic human TGF-β1: TGF-β1 from engineered human 293 cells, disulfide-linked dimer of 25 kD
naïve T cell (Th0)
  differentiation of Th0 to Th17 cells (IL-17 and INF-γ producing cells): matched human platelet derived native TGF-β1
[5]
  induction of IL-17 secretion: effective in enhancing the effect
  Th17 cell polarization: can effectively induce Th17 cell polarization

## Nc1ncnc2c1ncn2[C@@H]1O[C@H](COP(=O)(O)OP(=O)(O)NP(=O)(O)O)[C@@H](O)[C@H]1O [AMP-PNP]
[1]; [8]
  IC50: > 2000 µM
[2]; Vendor A preparation vs p38α from human cells
  fold less sensitive than human cell p38α: 7 fold
[2]; [9]
  IC50: 1810 µM
[3]; p38α produced in human cells
  IC50: 257 µM

## IL1β: recombinantly-produced, authentic human IL1β from the human cell expression system
[5]
  induction of IL-17 secretion: significantly more effective

## Nc1ncnc2c1c(I)cn2[C@@H]1O[C@H](CO)[C@@H](O)[C@H]1O [5-iodotubercidin]
[1]; read-out: IC50, E coli-II
  IC50: > 10 µM
[2]; read-out: IC50, E coli-I
  IC50: > 10 µM
[3]
  IC50: > 10 µM

## IL4: IL4 from human cells, glycosylated major band of 19 kD; SEQ ID NO: 22
Human TF-1 cells
  fold higher potency than the E. coli expressed cytokine: 4 fold

## TGF-β1 from insect cells: TGF-β1 cytokine from insect cells used as comparator
[5]
  induction of IL-17 secretion: marginal effect

## O=S(=O)(NCCNC/C=C/c1ccc(Br)cc1)c1cccc2cnccc12 [H89 Dihydrochloride]
[1]; [8]
  IC50: > 10 µM
[2]; [9]
  IC50: > 10 µM
[3]; p38α produced in human cells
  IC50: > 10 µM

## COC(=O)[C@@]1(O)C[C@H]2O[C@]1(C)n1c3ccccc3c3c4c(c5c6ccccc6n2c5c31)C(=O)NC4 [K252a]
[1]
  IC50: > 10 µM
[2]
  IC50: > 10 µM
[3]
  IC50: 0.005 µM

## Cn1cc(C2=C(c3cn(CCCSC(=N)N)c4ccccc34)C(=O)NC2=O)c2ccccc21 [Ro 31-8220]
[1]; [8]
  IC50: > 10 µM
[2]; [9]
  IC50: > 10 µM
[3]; p38α produced in human cells
  IC50: 9.9 µM

B1: TGF-β2: TGF-β2 from engineered human 293 cells, disulfide-linked dimer of 25 kD (protein, UniProt P61812 303-414, looked up)
Transforming growth factor …: ALDAAYCFRNVQDNCCLRPLYIDFKRDLGWKWIHEPKGYNANFCAGACPYLWSSDTQHSRVLSLYNTINPEASASPCCVSQDLEPLTILYYIGKTPKIEQLSNMIVKSCKCS
[5]
  Th17 cell polarization: can effectively induce Th17 cell polarization

B2: insect cell-produced IL-23: commercially available recombinant IL-23 from an insect cell expression system (protein, UniProt Q9NPF7 20-189; P29460 23-328, looked up)
Interleukin-23 subunit alpha: RAVPGGSSPAWTQCQQLSQKLCTLAWSAHPLVGHMDLREEGDEETTNDVPHIQCGDGCDPQGLRDNSQFCLQRIHQGLIFYEKLLGSDIFTGEPSLLPDSPVGQLHASLLGLSQLLQPEGHHWETQQIPSLSPSQPWQRLLLRFKILRSLQAFVAVAARVFAHGAATLSP
Interleukin-12 subunit beta: IWELKKDVYVVELDWYPDAPGEMVVLTCDTPEEDGITWTLDQSSEVLGSGKTLTIQVKEFGDAGQYTCHKGGEVLSHSLLLLHKKEDGIWSTDILKDQKEPKNKTFLRCEAKNYSGRFTCWWLTTISTDLTFSVKSSRGSSDPQGVTCGAATLSAERVRGDNKEYEYSVECQEDSACPAAEESLPIEVMVDAVHKLKYENYTSSFFIRDIIKPDPPKNLQLKPLKNSRQVEVSWEYPDTWSTPHSYFSLTFCVQVQGKSKREKKDRVFTDKTSATVICRKNASISVRAQDRYYSSSWSEWASVPCS
Human CD4+ T cells
  concentration at which maximum induction of IL-17 secretion was achieved: 10 ng/mL

B3: authentic human Noggin: Noggin from human 293 cell expression system, glycosylated, disulfide-linked dimer; SEQ ID NO: 24 (protein)
chain: QHYLHIRPAPSDNLPLVDLIEHPDPIFDPKEKDLNETLLRSLLGGHYDPGFMATSPPEDRPGGGGGAAGGAEDLAELDQLLRQRPSGAMPSEIKGLEFSEGLAQGKKQRLSKKLRRKLQMWLWSQTFCPVLYAWNDLGSRFWPRYVKVGSCFSKRSCSVPEGMVCKPSKSVHLTVLRWRCQRRGGQRCGWIPIQYPIISECKCSC
modifications: glycosylated disulfide-linked homodimer
[6]
  Oct3/4 expression (marker for undifferentiated hES cells): consistently expressed Oct3/4
[6]; listed as authentic human homodimer Noggin
  Oct3/4 expression (marker for undifferentiated hES cells): expresses so effectively and consistently Oct3/4

B4: TGF-β3: TGF-β3 from engineered human 293 cells, disulfide-linked dimer of 25 kD (protein, UniProt P10600 301-412, looked up)
Transforming growth factor …: ALDTNYCFRNLEENCCVRPLYIDFRQDLGWKWVHEPKGYYANFCSGPCPYLRSADTTHSTVLGLYNTLNPEASASPCCVPQDLEPLTILYYVGRTPKVEQLSNMVVKSCKCS
[5]
  Th17 cell polarization: can effectively induce Th17 cell polarization

B5: authentic human VEGF165: VEGF165 from engineered human 293 cells, glycosylated homodimer of 45 kD; SEQ ID NO: 2 (protein)
chain: APMAEGGGQNHHEVVKFMDVYQRSYCHPIETLVDIFQEYPDEIEYIFKPSCVPLMRCGGCCNDEGLECVPTEESNITMQIMRIKPHQGQHIGEMSFLQHNKCECRPKKDRARQENPCGPCSERRKHLFVQDPQTCKCSCKNTDSRCKARQLELNERTCRCDKPRR
modifications: glycosylated homodimer
[7]
  fold more active than the E. coli expressed protein: 10 fold
[7]; listed as VEGF165
  fold more active than the E. coli expressed protein: 6 fold
